From patent US8906825B2, “Herbicidal compositions comprising 4-amino-3-chloro-5-fluoro-6-(4-chloro-2-fluoro-3-methoxyphenyl) pyridine-2-carboxylic acid or a derivative thereof and triazolopyrimidine sulfonamides” (Dow AgroSciences LLC, priority 2012, dated 2014)

Assays:
Test in all cases: Postemergence foliar-applied herbicidal mixtures, cereal crops, greenhouse (Example III)
Format in all cases: in vivo
[1] = system: LAMPU (Lamium purpureum (L.), purple deadnettle); details: Florasulam 1.25 gai/ha, visual score 0 to 100 percent after 20-22 days
Experimental: (§1) Seeds of the desired test plant species were planted in Sun Gro MetroMix® 306 planting mixture, which typically has a pH of 6.0 to 6.8 and an organic matter content of about 30 percent, in plastic pots with a surface area of 103.2 square centimeters (cm^2). […] The plants were grown for 7-36 days in a greenhouse with an approximate 14 hour photoperiod which was maintained at about 18° C. during the day and about 17° C. during the night. Nutrients and water were added on a regular basis and supplemental lighting was provided with overhead metal halide 1000-Watt lamps as necessary. The plants were employed for testing when they reached the second or third true leaf stage.
(§2) Treatments consisted of the benzyl ester of 4-amino-3-chloro-5-fluoro-6-(4-chloro-2-fluoro-3-methoxy-phenyl)pyridine-2-carboxylic acid (Compound A), formulated as an SC, a second cereal herbicide alone and then both in combination.
(§3) Other herbicidal components were applied on an active ingredient basis and included acetolactate synthase (ALS)-inhibiting herbicides (sulfonamide chemical class) florasulam formulated as Derby® and pyroxsulam formulated as PowerFlex®. A measured aliquot of benzyl ester of 4-amino-3-chloro-5-fluoro-6-(4-chloro-2-fluoro-3-methoxy-phenyl)pyridine-2-carboxylic acid (Compound A) was placed in 25 milliliter (mL) glass vials and diluted in a volume of 1.25% (v/v) AgriDex® crop oil concentrated to obtain a stock solution. Compound requirements are based upon a 12 mL application volume at a rate of 187 liters per hectare (L/ha). […] Formulated compounds were applied to the plant material with an overhead Mandel track sprayer equipped with an 8002E nozzle calibrated to deliver 187 L/ha over an application area of 0.503 square meters (m^2) at a spray height of 18 inches (46 cm) above average plant canopy. Control plants were sprayed in the same manner with the solvent blank.
(§4) The treated plants and control plants were placed in a greenhouse as described above and watered by sub-irrigation to prevent wash-off of the test compounds. After 20-22 days, the condition of the test plants as compared with that of the control plants was determined visually and scored on a scale of 0 to 100 percent where 0 corresponds to no injury and 100 corresponds to complete kill.
(§5) Colby's equation was used to determine the herbicidal effects expected from the mixtures (Colby, S. R. 1967. Calculation of the synergistic and antagonistic response of herbicide combinations. Weeds 15:20-22.).
(§6) The following equation was used to calculate the expected activity of mixtures containing two active ingredients, A and B: Expected=A+B−(A×B/100)

[2] = system: VIOTR (Viola tricolor (L.), wild pansy); details: Florasulam 3.75 gai/ha, visual score 0 to 100 percent after 20-22 days
Experimental: as §1, §2, §3, §4, §5, §6

[3] = system: CIRAR (Cirsium arvense (L.) Scop., Canada thistle); details: visual score 0 to 100 percent after 20-22 days
Experimental: as §1, §2, §3, §4, §5, §6

[4] = system: VERPE (Veronica persica Poir., bird's-eye speedwell); details: visual score 0 to 100 percent after 20-22 days
Experimental: as §1, §2, §3, §4, §5, §6

[5] = system: SASKR (Salsola iberica (L.), Russian thistle); details: Florasulam 3.75 gai/ha, visual score 0 to 100 percent after 20-22 days
Experimental: as §1, §2, §3, §4, §5, §6

[6] = system: MATCH (Chamomilla chamomilla (L.) Rydb., scented mayweed); details: Florasulam 3.75 gai/ha, visual score 0 to 100 percent after 20-22 days
Experimental: as §1, §2, §3, §4, §5, §6

## COc1ncc(F)c2nc(S(=O)(=O)Nc3c(F)cccc3F)nn12 [Florasulam, N-(2,6-difluorophenyl)-8-fluoro-5-methoxy[1,2,4]triazolo[1,5-c]pyrimidine-2-sulfonamide, reference compound]
[1]
  LAMPU Obs: 10%
[2]
  VIOTR Obs: 65%
[3]; Florasulam 1.25 gai/ha
  CIRAR Obs: 55%
[3]; Florasulam 3.75 gai/ha
  CIRAR Obs: 40%
[4]; Florasulam 1.25 gai/ha
  VERPE Obs: 10%
[4]; Florasulam 3.75 gai/ha
  VERPE Obs: 10%
[5]
  SASKR Obs: 30%
[6]
  MATCH Obs: 65%
